{
  "source": "patent US20040001888A1",
  "about": "“Solid dosage forms for rapid dissolution of poorly soluble drugs” (BioPharm Solutions Inc., priority 2002, published 2004)",
  "key": {"[1]": {"assay": "Size distribution of drug-lipid droplets after dissolution (sub-micron particle sizer)", "format": "physicochemical", "conditions": "triamterene from active-release tablets", "procedure": "The morphologies of triamterene after dissolution in 0.1 M HCl and in water were characterized using a sub-micron particle sizer. The aliquots collected at the end of dissolution were centrifuged under the same conditions as in Example 4 prior to measurement. […] The impregnated powder was suspended in 900 ml PBS buffer at 37° C. with stirring at 100 rpm. […] The aliquots were collected at programmed time intervals, followed by centrifugation at 1000 rpm in an Eppendorf tube for 1 min."}, "[2]": {"assay": "Water dispersity of triamterene-Gelucire 44/14 melts", "format": "physicochemical", "conditions": "30 mg triamterene in melted Gelucire, drug-lipid melt in 900 ml water", "procedure": "To examine the compositions described above, triamterene was used as a model drug. […] In experiment, 30 mg triamterene was dissolved in various amounts of melted Gelucire to make the drug concentration to be 5%, 7.5%, 10% 12.5% 15% and 20%, respectively. Then the drug-lipid melts were dissolved in 900 ml of water. Up to 10% of triamterene in Gelucire, the drug was dispersed in water without precipitates. At higher drug contents (i.e. less lipids), precipitates were observed under a microscope. Drug concentration (in Gelucire) of 10% was selected-for later experiments."}, "[3]": {"conditions": "cited from earlier work"}},
  "note": "Like-named read-outs stand apart in the source and are kept apart here.",
  "data": [
    {"smiles": "Nc1nc(N)c2nc(-c3ccccc3)c(N)nc2n1", "note": "[triamterene]", "values": [
      {"measurement": "mean diameter of droplets", "setting": "[1]; dissolution in water", "result": 277, "unit": "nm"},
      {"measurement": "particles after dissolution", "setting": "[1]; dissolution medium 0.1 M HCl", "result": "no particles were detected"},
      {"measurement": "drug concentration in Gelucire dispersed in water without precipitates", "setting": "[2]", "result": "Up to 10%"},
      {"measurement": "solubility", "setting": "[3]; pH 1 buffer", "result": 321, "unit": "µg/mL"},
      {"measurement": "solubility", "setting": "[3]; pH 7", "result": 45, "unit": "µg/mL"}
    ]}
  ]
}
